Test results as given in patent publication US20250127170A1, “TRIAZINE HERBICIDAL COMPOUNDS” (SYNGENTA CROP PROTECTION AG, priority 2021, published 2025).

Tests used:
Format in all cases: in vivo
Conditions in all cases: 312 h, evaluated after 13 days, 100=total damage to plant, 0=no damage to plant
[1] = tested on: Amaranthus palmeri (AMAPA); test: Pre-emergence biological efficacy
Protocol: (§1) Seeds of weeds and/or crops were sown in standard soil in pots (Amaranthus palmeri (AMAPA), Lolium perenne (LOLPE), Euphorbia heterophylla (EPHHL), Ipomoea hederacea (IPOHE), Setaria faberi (SETFA), Echinochloa crus-galli (ECHCG)). After cultivation for one day under controlled conditions in a glasshouse (at 24/19° C., day/night; 16 hours light), the plants were sprayed with an aqueous spray solution derived from the formulation of the technical active ingredient in a small amount of acetone and a special solvent and emulsifier mixture referred to as IF50 (11.12% Emulsogen EL360™+44.44% N-methylpyrrolidone+44.44% Dowanol DPM glycol ether), to create a 50 g/l solution which was then diluted using 0.2% Genapol XO80 as diluent to give the desired final dose of test compound.
(§2) The test plants were then grown under controlled conditions in the glasshouse (at 24/18° C., day/night; 15 hours light; 50% humidity) and watered twice daily. After 13 days the test was evaluated (100=total damage to plant; 0=no damage to plant).

[2] = tested on: Echinochloa crus-galli (ECHCG); test: Pre-emergence biological efficacy
Protocol: as §1, §2

[3] = tested on: Euphorbia heterophylla (EPHHL); test: Pre-emergence biological efficacy
Protocol: as §1, §2

[4] = tested on: Ipomoea hederacea (IPOHE); test: Pre-emergence biological efficacy
Protocol: as §1, §2

Lolium perenne (LOLPE) [5] = test: Pre-emergence biological efficacy
Protocol: as §1, §2

Setaria faberi (SETFA) [6] = test: Pre-emergence biological efficacy
Protocol: as §1, §2

[7] = tested on: Amaranthus palmeri (AMAPA); test: Post-emergence biological efficacy
Protocol: as §1, with “Chenopodium album (CHEAL),” for “Lolium perenne (LOLPE),”, “(IPOHE), Eleusine indica (ELEIN), Lolium perenne (LOLPE), Digitaria sanguinalis (DIGSA),” for “(IPOHE),”, “14 days” for “one day”, “compound. The test plants were then grown under controlled conditions in the glasshouse (at 24/18° C., day/night; 15 hours light; 50% humidity) and watered twice daily. After 13 days the test was evaluated (100=total damage to plant; 0=no damage to plant).” for “compound.”

[8] = tested on: Chenopodium album (CHEAL); test: Post-emergence biological efficacy
Protocol: as §1, with “Chenopodium album (CHEAL),” for “Lolium perenne (LOLPE),”, “(IPOHE), Eleusine indica (ELEIN), Lolium perenne (LOLPE), Digitaria sanguinalis (DIGSA),” for “(IPOHE),”, “14 days” for “one day”, “compound. The test plants were then grown under controlled conditions in the glasshouse (at 24/18° C., day/night; 15 hours light; 50% humidity) and watered twice daily. After 13 days the test was evaluated (100=total damage to plant; 0=no damage to plant).” for “compound.”

[9] = tested on: Digitaria sanguinalis (DIGSA); test: Post-emergence biological efficacy
Protocol: as §1, with “Chenopodium album (CHEAL),” for “Lolium perenne (LOLPE),”, “(IPOHE), Eleusine indica (ELEIN), Lolium perenne (LOLPE), Digitaria sanguinalis (DIGSA),” for “(IPOHE),”, “14 days” for “one day”, “compound. The test plants were then grown under controlled conditions in the glasshouse (at 24/18° C., day/night; 15 hours light; 50% humidity) and watered twice daily. After 13 days the test was evaluated (100=total damage to plant; 0=no damage to plant).” for “compound.”

[10] = tested on: Echinochloa crus-galli (ECHCG); test: Post-emergence biological efficacy
Protocol: as §1, with “Chenopodium album (CHEAL),” for “Lolium perenne (LOLPE),”, “(IPOHE), Eleusine indica (ELEIN), Lolium perenne (LOLPE), Digitaria sanguinalis (DIGSA),” for “(IPOHE),”, “14 days” for “one day”, “compound. The test plants were then grown under controlled conditions in the glasshouse (at 24/18° C., day/night; 15 hours light; 50% humidity) and watered twice daily. After 13 days the test was evaluated (100=total damage to plant; 0=no damage to plant).” for “compound.”

Eleusine indica (ELEIN) = test: Post-emergence biological efficacy
Protocol: as §1, with “Chenopodium album (CHEAL),” for “Lolium perenne (LOLPE),”, “(IPOHE), Eleusine indica (ELEIN), Lolium perenne (LOLPE), Digitaria sanguinalis (DIGSA),” for “(IPOHE),”, “14 days” for “one day”, “compound. The test plants were then grown under controlled conditions in the glasshouse (at 24/18° C., day/night; 15 hours light; 50% humidity) and watered twice daily. After 13 days the test was evaluated (100=total damage to plant; 0=no damage to plant).” for “compound.”

[11] = tested on: Euphorbia heterophylla (EPHHL); test: Post-emergence biological efficacy
Protocol: as §1, with “Chenopodium album (CHEAL),” for “Lolium perenne (LOLPE),”, “(IPOHE), Eleusine indica (ELEIN), Lolium perenne (LOLPE), Digitaria sanguinalis (DIGSA),” for “(IPOHE),”, “14 days” for “one day”, “compound. The test plants were then grown under controlled conditions in the glasshouse (at 24/18° C., day/night; 15 hours light; 50% humidity) and watered twice daily. After 13 days the test was evaluated (100=total damage to plant; 0=no damage to plant).” for “compound.”

[12] = tested on: Ipomoea hederacea (IPOHE); test: Post-emergence biological efficacy
Protocol: as §1, with “Chenopodium album (CHEAL),” for “Lolium perenne (LOLPE),”, “(IPOHE), Eleusine indica (ELEIN), Lolium perenne (LOLPE), Digitaria sanguinalis (DIGSA),” for “(IPOHE),”, “14 days” for “one day”, “compound. The test plants were then grown under controlled conditions in the glasshouse (at 24/18° C., day/night; 15 hours light; 50% humidity) and watered twice daily. After 13 days the test was evaluated (100=total damage to plant; 0=no damage to plant).” for “compound.”

Lolium perenne (LOLPE) [13] = test: Post-emergence biological efficacy
Protocol: as §1, with “Chenopodium album (CHEAL),” for “Lolium perenne (LOLPE),”, “(IPOHE), Eleusine indica (ELEIN), Lolium perenne (LOLPE), Digitaria sanguinalis (DIGSA),” for “(IPOHE),”, “14 days” for “one day”, “compound. The test plants were then grown under controlled conditions in the glasshouse (at 24/18° C., day/night; 15 hours light; 50% humidity) and watered twice daily. After 13 days the test was evaluated (100=total damage to plant; 0=no damage to plant).” for “compound.”

Setaria faberi (SETFA) [14] = test: Post-emergence biological efficacy
Protocol: as §1, with “Chenopodium album (CHEAL),” for “Lolium perenne (LOLPE),”, “(IPOHE), Eleusine indica (ELEIN), Lolium perenne (LOLPE), Digitaria sanguinalis (DIGSA),” for “(IPOHE),”, “14 days” for “one day”, “compound. The test plants were then grown under controlled conditions in the glasshouse (at 24/18° C., day/night; 15 hours light; 50% humidity) and watered twice daily. After 13 days the test was evaluated (100=total damage to plant; 0=no damage to plant).” for “compound.”

| Structure (SMILES) | pest or weed control at 250 g/ha [1] [%] | pest or weed control at 250 g/ha [2] [%] | pest or weed control at 250 g/ha [3] [%] | pest or weed control at 250 g/ha [4] [%] | pest or weed control at 250 g/ha (Lolium perenne (LOLPE) [5]) [%] | pest or weed control at 250 g/ha (Setaria faberi (SETFA) [6]) [%] | pest or weed control at 250 g/ha [7] [%] | pest or weed control at 250 g/ha [8] [%] | pest or weed control at 250 g/ha [9] [%] | pest or weed control at 250 g/ha [10] [%] | pest or weed control at 250 g/ha (Eleusine indica (ELEIN)) [%] | pest or weed control at 250 g/ha [11] [%] | pest or weed control at 250 g/ha [12] [%] | pest or weed control at 250 g/ha (Lolium perenne (LOLPE) [13]) [%] | pest or weed control at 250 g/ha (Setaria faberi (SETFA) [14]) [%] |
| --- | --- | --- | --- | --- | --- | --- | --- | --- | --- | --- | --- | --- | --- | --- | --- |
| CCOC(=O)C[C@H](C)OC(=O)c1cc(-n2c(=O)n(C)c(=S)n(C)c2=O)ccc1Cl [Compound 1-360 (S-enantiomer), [(1S)-3-ethoxy-1-methyl-3-oxo-propyl] 2-chloro-5-(3,5-dimethyl-2,6-dioxo-4-thioxo-1,3,5-triazinan-1-yl)benzoate] | 80 | 80 | 30 | 20 | 70 | 90 | 100 | 100 | 100 | 100 | 90 | 90 | 70 | 100 | 100 |
| CCOC(=O)C[C@H](C)OC(=O)c1cc(-n2c(=O)n(C)c(=S)n(C)c2=O)c(F)cc1Cl [Compound 1-369 (S-enantiomer), [(1S)-3-ethoxy-1-methyl-3-oxo-propyl]-2-chloro-5-(3,5-dimethyl-2,6-dioxo-4-thioxo-1,3,5-triazinan-1-yl)-4-fluoro-benzoate] | 100 | 100 | 90 | 50 | 90 | 100 | 100 | 100 | 100 | 100 | 100 | 100 | 90 | 100 | 100 |
| CCOC(=O)CC(C)N(C)C(=O)c1cc(-n2c(=O)n(C)c(=S)n(C)c2=O)c(F)cc1Cl (stereo not drawn) [Compound 1-405, Ethyl 3-[[2-chloro-5-(3,5-dimethyl-2,6-dioxo-4-thioxo-1,3,5-triazinan-1-yl)-4-fluoro-benzoyl]-methyl-amino]butanoate] | 0 | 0 | 0 | 0 | 0 | 0 | 60 | 60 | 40 | 10 | 50 | 20 | 40 | 10 | 10 |
| CCOC(=O)CC(CC)OC(=O)c1cc(-n2c(=O)n(C)c(=S)n(C)c2=O)c(F)cc1Cl (stereo not drawn) [Compound 1-420, (3-Ethoxy-1-ethyl-3-oxo-propyl) 2-chloro-5-(3,5-dimethyl-2,6-dioxo-4-thioxo-1,3,5-triazinan-1-yl)-4-fluoro-benzoate] | 100 | 100 | 100 | 30 | 90 | 100 | 100 | 100 | 30 | 40 | 50 | 70 | 50 | 100 | 90 |
| CCOC(=O)C(Cl)COC(=O)c1cc(-n2c(=O)n(C)c(=S)n(C)c2=O)c(F)cc1Cl (stereo not drawn) [Compound 1-675, (2-Chloro-3-ethoxy-3-oxo-propyl) 2-chloro-5-(3,5-dimethyl-2,6-dioxo-4-thioxo-1,3,5-triazinan-1-yl)-4-fluoro-benzoate] | 100 | 100 | 80 | 40 | 90 | 90 | 100 | 100 | 90 | 80 | 90 | 90 | 100 | 80 | 90 |
| CCOC(=O)CC1(NC(=O)c2cc(-n3c(=O)n(C)c(=S)n(C)c3=O)c(F)cc2Cl)CC1 [Compound 1-744, Ethyl 2-[1-[[2-chloro-5-(3,5-dimethyl-2,6-dioxo-4-thioxo-1,3,5-triazinan-1-yl)-4-fluoro-benzoyl]amino]cyclopropyl]acetate] | 40 | 80 | 70 | 10 | 60 | 50 | 30 | 60 | 20 | 30 | 50 | 70 | 30 | 60 | 10 |
